The values that follow come from ChEMBL document CHEMBL3612052, “Identification of amino acid appended acridines as potential leads to anti-cancer drugs” (Bioorg Med Chem Lett, 2015).

Active and inactive are the calls of the source. The calls are words filed in the database; no cut-off is given here.

Test [1] has as its system C6. Nature of the test: Cell cycle arrest in rat C6 cells assessed as accumulation at G0/G1 phase at 10 uM after 36 hrs by propidium iodide staining-based flow cytometric analysis. It is filed as functional.
Test [2] relates to C6. Nature of the test: Antiproliferative activity against rat C6 cells after 72 hrs by MTT assay. It is filed as functional, cell-based. As to conditions: C6, 72 h. A general note: Formazan colour is commonly taken as a measure of viable cells.
In test [3] the test system is C6. In words: Antiproliferative activity against rat C6 cells assessed as appearance of differentiated morphology with long stellate process at 20 uM by alpha-tubulin immunostaining-based phase contrast microscopic analysis. Type of test: functional, cell-based.
For test [4], the system named is C6. Nature of the test: Antiproliferative activity against rat C6 cells assessed as reduction in cell number at 10 to 20 uM by DAPI staining-based confocal microscopic analysis. It is filed as functional.
Test [5] deals with C6. In words: Cell cycle arrest in rat C6 cells assessed as accumulation at G0/G1 phase at 10 uM after 36 hrs by propidium iodide staining-based flow cytometric analysis relative to control. It is filed as functional. On the technique in general: A flow cytometer gives signals particle by particle.
Test [6] deals with C6. In words: Downregulation of GFAP expression in rat C6 cells by DAPI staining-based confocal microscopic analysis. Type of test: functional, cell-based.
The test system of test [7] is C6. In words: Cell cycle arrest in rat C6 cells assessed as decrease in cell number in S phase at 10 uM after 36 hrs by propidium iodide staining-based flow cytometric analysis relative to control. It is filed as functional.
The subject of test [8] is C6. Nature of the test: Antiproliferative activity against rat C6 cells assessed as appearance of differentiated morphology with long stellate process at 10 to 20 uM by DAPI staining-based confocal microscopic analysis. It is filed as functional, cell-based.
The subject of test [9] is C6. Nature of the test: Antiproliferative activity against rat C6 cells assessed as appearance of small cell body at 20 uM by alpha-tubulin immunostaining-based phase contrast microscopic analysis. Type of test: functional.
Test [10] deals with C6. Nature of the test: Induction of senescence in rat C6 cells assessed as upregulation of mortalin expression in nucleus by DAPI staining-based confocal microscopic analysis. It is filed as functional, cell-based.
In test [11] the test system is C6. In words: Cell cycle arrest in rat C6 cells assessed as decrease in cell number in G2/M phase at 10 uM after 36 hrs by propidium iodide staining-based flow cytometric analysis relative to control. Type of test: functional.
The test system of test [12] is C6. In words: Antiproliferative activity against rat C6 cells assessed as reduction in cell number at 20 uM by alpha-tubulin immunostaining-based phase contrast microscopic analysis. Type of test: functional.
Test [13] relates to C6. In words: Antiproliferative activity against rat C6 cells at 10 uM by phase contrast microscopic analysis relative to control. It is filed as functional, cell-based.
In test [14] the test system is C6. Nature of the test: Antiproliferative activity against rat C6 cells assessed as appearance of small cell body at 10 to 20 uM by DAPI staining-based confocal microscopic analysis. Type of test: functional.
Test [15] deals with C6. In words: Induction of senescence in rat C6 cells assessed as upregulation of HSP70 expression at 10 ug/ml by DAPI staining-based confocal microscopic analysis. Type of test: functional, cell-based.
Test [16] has as its system C6. In words: Induction of senescence in rat C6 cells assessed as translocation of mortalin from perinuclear region to pancytoplasmic region by DAPI staining-based confocal microscopic analysis. Type of test: functional, cell-based.

In general, IC50 refers to the concentration that inhibits the measured activity by half. Lower therefore signals inhibition by little substance. For `COC(=O)[C@@H](NC(=O)c1cccc2c(=O)c3ccccc3[nH]c12)C(C)C`, the outcome in test [1] was Active. In addition, the IC50 in [2] amounted to 14 µM.

In the case of `O=C(N[C@@H](Cc1ccc(O)cc1)C(=O)O)c1cccc2c(=O)c3ccccc3[nH]c12`, the outcome in test [1] was Active. In [2], this molecule yielded an IC50 of 14 µM.

As for `O=C(N[C@@H](Cc1ccc(O)cc1)C(=O)NCC(=O)N1CCC[C@H]1C(=O)O)c1cccc2c(=O)c3ccccc3[nH]c12`, the result in test [3], in [1], in [4], in test [5], in [6] and in test [7] was Active. The result in [8], in test [9], in test [10], in test [11], in test [12] and in test [13] was Active. Moreover, the result in test [14], in test [15] and in [16] was Active. In addition, the IC50 in test [2] turned out to be 14 µM.

`COC(=O)CNC(=O)[C@H](Cc1ccc(O)cc1)NC(=O)c1cccc2c(=O)c3ccccc3[nH]c12`: the result in test [3], in test [1], in test [4], in test [5], in [6] and in [7] was Active. The outcome in [8], in test [9], in test [10], in [11], in test [12] and in test [13] was Active. Also, the outcome in test [14], in test [15] and in [16] was Active. In test [2], the midpoint of inhibition, the IC50, lay at 14 µM.

Take `O=C(O)CNC(=O)[C@@H]1CCCN1C(=O)[C@H](Cc1ccc(O)cc1)NC(=O)c1cccc2c(=O)c3ccccc3[nH]c12`: the result in [3], in test [1], in test [4], in test [5], in test [6] and in [7] was Active. The result in [8], in test [9], in test [10], in test [11], in [12] and in test [13] was Active. Besides, the result in [14], in test [15] and in test [16] was Active. Besides, in test [2], the IC50 turned out to be 14 µM.

Consider `COC(=O)[C@H](Cc1ccc(O)cc1)NC(=O)c1cccc2c(=O)c3ccccc3[nH]c12`, for which the result in [1] was Active. Moreover, half-maximal inhibition in test [2] (IC50) required 14 µM.
